Data on 2 molecules can be found in US10774065B2, “1-pyridazin-/triazin-3-yl-piper(-azine)/idine/pyrolidine derivatives and compositions thereof for inhibiting the activity of SHP2” (NOVARTIS AG, priority 2014, dated 2020).

pIC50: −log10 of the molar value.

The target of the test is SHP2 (Homo sapiens (Human), UniProt Q06124). The test can be described thus: SHP2 Allosteric Inhibition Assay (DiFMUP prompt fluorescence). The note with it: 0.5 nM SHP2 activated with 0.5 μM peptide IRS1_pY1172(dPEG8)pY1222; substrate DiFMUP; 25° C. In kind it is biochemical.
Sequence of SHP2 (Q06124 whole entry): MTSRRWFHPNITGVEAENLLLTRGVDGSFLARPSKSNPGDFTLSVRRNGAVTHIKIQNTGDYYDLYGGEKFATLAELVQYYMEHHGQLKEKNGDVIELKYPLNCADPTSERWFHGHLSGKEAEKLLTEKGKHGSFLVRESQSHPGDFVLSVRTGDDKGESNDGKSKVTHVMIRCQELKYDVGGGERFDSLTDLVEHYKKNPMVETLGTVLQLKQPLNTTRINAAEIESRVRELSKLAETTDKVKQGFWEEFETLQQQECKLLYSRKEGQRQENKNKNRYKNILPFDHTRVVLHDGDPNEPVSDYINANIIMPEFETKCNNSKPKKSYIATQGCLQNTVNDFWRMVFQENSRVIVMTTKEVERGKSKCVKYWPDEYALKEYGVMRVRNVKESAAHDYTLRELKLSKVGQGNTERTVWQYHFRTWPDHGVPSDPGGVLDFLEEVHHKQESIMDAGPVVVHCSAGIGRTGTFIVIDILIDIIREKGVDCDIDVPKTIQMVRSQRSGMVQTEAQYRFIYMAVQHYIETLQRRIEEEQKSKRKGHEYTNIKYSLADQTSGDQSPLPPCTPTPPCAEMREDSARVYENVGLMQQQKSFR

One may read the pIC50 as −log10 of the IC50, conventionally taken in molar units. Take `C[C@]1(CN)CCN(c2cnc(-c3cccc(Cl)c3Cl)c(N)n2)C[C@H]1O` (single isomer, unassigned) [11 P1]: the pIC50 was 7.42.

Consider `C[C@]1(CN)CCN(c2cnc(-c3cccc(Cl)c3Cl)c(N)n2)C[C@H]1O` (single isomer, unassigned) [11 P2], for which the pIC50 is 6.79.
